Results on seven compounds are retold here after patent US20220251036A1, “DIFLUOROHALOALLYLAMINE SULFONE DERIVATIVE INHIBITORS OF LYSYL OXIDASES, METHODS OF PREPARATION, AND USES THEREOF” (PHARMAXIS LTD., priority 2019, published 2022).

Holding throughout (format): biochemical
In one assay the target is T1, recombinant human MAO-A (Homo sapiens, UniProt P21397).
T1 construct: purchased Sigma Aldrich
T1 sequence (P21397 1-527): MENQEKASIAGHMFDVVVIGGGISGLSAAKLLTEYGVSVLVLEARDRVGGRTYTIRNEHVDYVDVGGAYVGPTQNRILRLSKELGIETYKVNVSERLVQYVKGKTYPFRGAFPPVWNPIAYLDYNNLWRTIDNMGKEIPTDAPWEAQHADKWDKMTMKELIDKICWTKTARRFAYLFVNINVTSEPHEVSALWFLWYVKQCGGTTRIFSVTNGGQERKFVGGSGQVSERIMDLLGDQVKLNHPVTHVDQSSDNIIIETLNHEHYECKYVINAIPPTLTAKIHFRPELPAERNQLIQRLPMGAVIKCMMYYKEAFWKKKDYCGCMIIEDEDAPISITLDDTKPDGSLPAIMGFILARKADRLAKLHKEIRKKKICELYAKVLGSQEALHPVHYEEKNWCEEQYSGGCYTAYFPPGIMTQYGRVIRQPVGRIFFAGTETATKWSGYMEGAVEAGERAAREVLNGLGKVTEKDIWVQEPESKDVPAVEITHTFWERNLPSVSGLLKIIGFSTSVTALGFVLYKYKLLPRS
In words: MAO-A inhibition. Conditions: 2 hours incubation, tyramine 100 μM. As to the method:
The specificity of the compounds of this invention was tested by determining their ability to inhibit MAO-A activity in vitro, using recombinant human MAO-A (0.003 mg/mL; Sigma Aldrich). The assay was performed in a similar way as for human SSAO/VAP-1 (Example 8) except, the incubation with the test compounds was extended to 2 hours, and the substrate tyramine was used at 100 μM in place of benzylamine.

Assay [1] addresses T2, Human recombinant SSAO/VAP-1 (Homo sapiens, UniProt Q16853).
T2 construct: residues 34-763 of human SSAO/VAP-1; TEV cleavage site (N); made in house
T2 sequence (Q16853 34-763): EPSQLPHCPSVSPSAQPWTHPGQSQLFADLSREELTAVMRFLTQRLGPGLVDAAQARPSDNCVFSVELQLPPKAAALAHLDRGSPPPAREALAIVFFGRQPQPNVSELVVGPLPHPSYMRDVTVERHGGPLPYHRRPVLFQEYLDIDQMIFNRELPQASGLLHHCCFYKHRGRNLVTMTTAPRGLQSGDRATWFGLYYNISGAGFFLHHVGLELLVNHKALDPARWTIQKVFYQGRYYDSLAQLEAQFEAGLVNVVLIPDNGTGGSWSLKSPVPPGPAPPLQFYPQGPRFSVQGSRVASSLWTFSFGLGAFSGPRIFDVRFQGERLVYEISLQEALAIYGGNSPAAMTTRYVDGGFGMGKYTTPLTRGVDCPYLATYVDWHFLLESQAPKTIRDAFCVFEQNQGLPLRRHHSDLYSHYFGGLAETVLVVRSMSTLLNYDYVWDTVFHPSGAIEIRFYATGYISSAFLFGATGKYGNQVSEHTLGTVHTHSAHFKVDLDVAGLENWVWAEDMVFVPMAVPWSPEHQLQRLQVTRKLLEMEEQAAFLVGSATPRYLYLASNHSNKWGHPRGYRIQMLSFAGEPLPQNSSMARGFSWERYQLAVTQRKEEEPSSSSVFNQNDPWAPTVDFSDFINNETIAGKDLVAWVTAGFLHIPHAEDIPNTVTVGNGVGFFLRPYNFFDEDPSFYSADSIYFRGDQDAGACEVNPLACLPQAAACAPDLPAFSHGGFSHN
In words: SSAO/VAP-1 inhibition. Conditions: 30 min incubation at 37° C, benzylamine 600 μM. As to the method: Human recombinant SSAO/VAP-1 amine oxidase activity was determined using the coupled colorimetric method as described for monoamine oxidase, copper-containing amine oxidases and related enzymes (Holt A. and Palcic M., A peroxidase-coupled continuous absorbance plate-reader assay for flavin monoamine oxidases, copper-containing amine oxidases and related enzymes. Nat Protoc 2006; 1: 2498-2505). Briefly, a cloned cDNA template corresponding to residues 34-763 of human SSAO/VAP-1, and incorporating a mouse Ig kappa (κ) signal sequence, N-terminal flag epitope tag and tobacco etch virus (TEV) cleavage site, was assembled in a mammalian expression vector (pLO-CMV) by Geneart AG. This vector containing human SSAO/VAP-1 residues was transfected into CHO-K1 glycosylation mutant cell line, Lee 8. A clone stably expressing human SSAO/VAP-1 was isolated and cultured in large scale. Active human SSAO/VAP-1 was purified and recovered using immunoaffinity chromatography. This was used as the source for SSAO/VAP-1 activity. A high-throughput fluorescent assay was developed using either 96 or 384 well format. Briefly, in a standard 96 well plate assay 50 μL of purified human SSAO/VAP-1 (0.25 μg/mL) in 0.1 M sodium phophate buffer (pH 7.4) was added into each well. Test compounds were dissolved in DMSO and tested in a Concentration Response Curve (CRC) with 4-11 data points, typically in the micromolar or nanomolar range after incubation with human SSAO/VAP-1 for 30 min at 37° C. After 30 min incubation, 50 μL of the reaction mixture containing 600 μM benzylamine (Sigma Aldrich), 120 μM Amplex Red (Sigma Aldrich) and 1.5 U/mL horseradish peroxidase (Sigma Aldrich) prepared in 0.1 M sodium phosphate buffer (pH 7.4) were added to the corresponding well. The fluorescence unit (RFU) was read every 2.5 min for 30 min at 37° C. excitation 565 nm and emission 590 (Optima; BMG labtech). The slope of the kinetics for each well was calculated using MARS data analysis software (BMG labtech) and this value was used to deduce the IC50 value (Dotmatics).

In another assay the target is T3, recombinant human MAO-B (Homo sapiens, UniProt P27338).
T3 construct: purchased Sigma Aldrich
T3 sequence (P27338 1-520): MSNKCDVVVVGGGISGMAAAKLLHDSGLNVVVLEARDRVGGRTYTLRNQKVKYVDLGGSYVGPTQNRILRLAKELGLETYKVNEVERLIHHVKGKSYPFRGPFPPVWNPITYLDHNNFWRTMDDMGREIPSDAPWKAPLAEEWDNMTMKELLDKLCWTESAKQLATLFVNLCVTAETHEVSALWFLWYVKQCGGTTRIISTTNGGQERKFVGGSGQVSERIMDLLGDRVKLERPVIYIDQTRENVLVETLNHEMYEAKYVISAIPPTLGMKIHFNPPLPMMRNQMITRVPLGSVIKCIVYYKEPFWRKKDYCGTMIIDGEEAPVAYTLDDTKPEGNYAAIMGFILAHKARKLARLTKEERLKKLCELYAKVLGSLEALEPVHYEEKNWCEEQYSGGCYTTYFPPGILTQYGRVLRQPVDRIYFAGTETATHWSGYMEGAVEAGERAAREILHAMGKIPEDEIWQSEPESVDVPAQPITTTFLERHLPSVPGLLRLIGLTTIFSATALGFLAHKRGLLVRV
In words: MAO-B inhibition. Conditions: benzylamine 100 μM. As to the method:
The specificity of the compounds of this invention was tested by determining their ability to inhibit MAO-B activity in vitro using recombinant human MAO-B (0.02 mg/mL; Sigma Aldrich). The assay was performed in a similar way as for human SSAO/VAP-1 (Example 8) except, the substrate benzylamine was used at 100 μM.

As to `Cc1ccccc1S(=O)(=O)C(F)(F)/C(F)=C/CN` [Compound 5, (Z)-3,4,4-trifluoro-4-(o-tolylsulfonyl)but-2-en-1-amine], the half-maximal inhibitory concentration (IC50) at recombinant human MAO-A was 20.2 µM; in assay [1], above 30 µM; at recombinant human MAO-B it was above 30 µM.
For `N#CCCN` [BAPN, β-aminopropionitrile, reference compound], the concentration for half-maximal inhibition (IC50) (on recombinant human MAO-A; in assay [1]; on recombinant human MAO-B) was above 30 µM throughout.
As for `CNc1ccccc1S(=O)(=O)C(F)(F)/C(F)=C/CN` [Compound 4, (Z)-2-((4-amino-1,1,2-trifluorobut-2-en-yl)sulfony1)-N-methylaniline], the IC50 on recombinant human MAO-A was 26.7 µM; in assay [1], 18 µM; at recombinant human MAO-B, at least 30 µM.
In the case of `Cc1ccc(S(=O)(=O)C(F)(F)/C(F)=C/CN)cc1` [Compound 6, (Z)-3,4,4-trifluoro-4-tosylbut-2-en-1-amine], the IC50 (at recombinant human MAO-A; in assay [1]; on recombinant human MAO-B) was above 30 µM each time.
With `CS(=O)(=O)c1ccc(COc2ccccc2S(=O)(=O)C(F)(F)/C(F)=C/CN)cc1` [Compound 10, (Z)-3,4,4-trifluoro-4-((2-((4-(methylsulfonyl)benzyl)oxy)phenyl)sulfonyl) but-2-en-1-amine], the IC50 on recombinant human MAO-A was 4.7 µM; in assay [1], 14.7 µM; at recombinant human MAO-B, above 30 µM.
On to `NC/C=C(\F)C(F)(F)S(=O)(=O)c1cccs1` [Compound 14, (Z)-3,4,4-trifluoro-4-(thiophen-2-ylsulfonyl)but-2-en-1-amine], for which the IC50 in assay [1] is 26.6 µM.
Take `NC/C=C(\F)C(F)(F)S(=O)(=O)Cc1ccccc1` [Compound 8, (Z)-4-(benzylsulfony1)-3,4,4-trifluorobut-2-en-1-amine]: the concentration for half-maximal inhibition (IC50) (at recombinant human MAO-A; in assay [1]; at recombinant human MAO-B) was above 30 µM throughout.

Broadly, the IC50 is the concentration at which inhibition is half-maximal.
